Each structure is given as a SMILES string.

The target in the first experiment is T1, Tyrosinase (Homo sapiens, UniProt P14679).
T1 sequence (P14679 whole entry): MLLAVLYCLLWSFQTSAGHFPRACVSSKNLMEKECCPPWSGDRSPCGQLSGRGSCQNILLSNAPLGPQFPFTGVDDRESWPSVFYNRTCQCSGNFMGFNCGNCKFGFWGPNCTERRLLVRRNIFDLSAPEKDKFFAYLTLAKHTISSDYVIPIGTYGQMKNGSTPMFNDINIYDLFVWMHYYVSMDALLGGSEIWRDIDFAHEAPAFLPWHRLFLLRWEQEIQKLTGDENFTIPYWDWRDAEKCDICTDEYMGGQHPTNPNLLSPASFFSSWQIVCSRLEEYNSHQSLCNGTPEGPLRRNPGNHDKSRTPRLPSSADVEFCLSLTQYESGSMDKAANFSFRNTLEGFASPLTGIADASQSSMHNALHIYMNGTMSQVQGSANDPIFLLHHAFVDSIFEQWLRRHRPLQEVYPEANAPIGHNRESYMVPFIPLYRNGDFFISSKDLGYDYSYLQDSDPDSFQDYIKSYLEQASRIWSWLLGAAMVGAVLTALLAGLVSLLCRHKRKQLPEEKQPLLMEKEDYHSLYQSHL
The experiment in a line: Inhibition of human tyrosinase.
The term IC50 denotes the midpoint of a concentration-inhibition curve. Read a low IC50 as greater potency in that assay. `O=c1oc2ccccc2cc1O` [3-HYDROXYCOUMARIN] returned an IC50 of 26 µM.

For a further experiment, the target named is T2, Mushroom tyrosinase (Agaricus bisporus, UniProt O42713+Q00024+C7FF04+C7FF05). The experiment can be described thus: Inhibition of mushroom tyrosinase using L-DOPA as substrate by spectrophotometric analysis. The class given is protein assay.
Take `O=c1[nH]c2ccc(Br)cc2cc1O`: the IC50 worked out at 2.52 µM.

Compound `Cc1cc2cc(O)c(=O)[nH]c2cc1C` gave an IC50 of 43.5 µM.

Take `Cc1ccc2cc(O)c(=O)[nH]c2c1`: the half-maximal inhibitory concentration (IC50) amounted to 173 µM.

For the compound `O=c1oc2ccccc2cc1O` [3-HYDROXYCOUMARIN], the IC50 was found to be 2.49 µM.

On to `O=c1[nH]c2ccccc2cc1O`, for which the IC50 came out at 2.74 µM.

Compound `O=c1[nH]c2cccc(Cl)c2cc1O` registered a 50% inhibitory concentration (IC50) of 92.7 µM.

The compound `Cc1ccc2[nH]c(=O)c(O)cc2c1` registered an IC50 of 6.11 µM. This IC50 lies about 15-fold lower than the previous one.

Consider `O=c1[nH]c2ccc(F)cc2cc1O`, for which the concentration for half-maximal inhibition (IC50) is 3.57 µM.

For `Cc1cc(C)c2cc(O)c(=O)[nH]c2c1`, the IC50 is 926 µM.

With `CC(C)C(=O)Nc1nc(-c2ccc(O)cc2O)cs1`, the IC50 was 0.13 µM.

For the next experiment, the target named is T2, Mushroom tyrosinase. The experiment can be described thus: Competitive inhibition of mushroom tyrosinase using L-DOPA as substrate assessed as inhibition constant by Lineweaver-Burk plots analysis. The class given is protein assay.
By Ki is commonly meant the equilibrium dissociation constant of an inhibitor or competing ligand from its target. With `Cc1ccc2[nH]c(=O)c(O)cc2c1`, the inhibitory constant (Ki) was found to be 1.41 µM.
